Experimental data reported in patent US6737383B1, “Herbicidal oxadiazolidines” (priority 1999, dated 2004).

Legend:
[1] = test system: purple nutsedge; experiment: Test B pre/postemergence purple nutsedge; format: in vivo, Cyperus rotundus
Outline: (§1)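 Herbicidal effect was estimated by eye on a ten-point control scale after plants spent twelve to sixteen days in a greenhouse following soil or foliar treatment. Foliar sprays targeted plants at one to four leaves; all doses were formulated in a non-phytotoxic solvent with surfactant.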

[2] = test system: giant foxtail; experiment: Test B pre/postemergence giant foxtail; format: in vivo, Setaria faberii
Outline: as §1

[3] = test system: velvetleaf; experiment: Test B pre/postemergence velvetleaf; format: in vivo, Abutilon theophrasti
Outline: as §1

[4] = test system: wild oat; experiment: Test B pre/postemergence wild oat; format: in vivo, Avena fatua
Outline: as §1

[5] = test system: soybean; experiment: Test B pre/postemergence soybean; format: in vivo, Glycine max
Outline: as §1

[6] = test system: sugar beet; experiment: Test B pre/postemergence sugar beet; format: in vivo, Beta vulgaris
Outline: as §1

[7] = test system: corn; experiment: Test B pre/postemergence corn; format: in vivo, Zea mays
Outline: as §1

[8] = test system: rice; experiment: Test B flood test rice; format: in vivo, Oryza sativa
Outline: (§2)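 Plants were grown to the 2-leaf stage before treatment with test chemical, then held in a greenhouse for twelve to sixteen days. Injury was visually rated against untreated controls on a 0–10 scale, where 0 is no effect and 10 is complete control.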

[9] = test system: duck salad; experiment: Test B flood test duck salad; format: in vivo, Heteranthera limosa
Outline: as §2

[10] = test system: wheat; experiment: Test B pre/postemergence wheat; format: in vivo, Triticum aestivum
Outline: as §1

[11] = test system: morningglory; experiment: Test B pre/postemergence morningglory; format: in vivo, Ipomoea hederacea
Outline: as §1

[12] = test system: pigweed; experiment: Test B pre/postemergence pigweed; format: in vivo, Amaranthus retroflexus
Outline: as §1

[13] = test system: crabgrass; experiment: Test B pre/postemergence crabgrass; format: in vivo, Digitaria sanguinalis
Outline: as §1

[14] = test system: bamyardgrass; experiment: Test B flood test barnyardgrass; format: in vivo, Echinochloa crus-galli
Outline: as §2

[15] = test system: rape; experiment: Test B pre/postemergence rape; format: in vivo, Brassica napus
Outline: as §1

[16] = test system: cocklebur; experiment: Test B pre/postemergence cocklebur; format: in vivo, Xanthium strumarium
Outline: as §1

[17] = Postemergence, Rate 62 g/ha, scale 0 to 10, 0 is no effect, 10 is complete control
[18] = Postemergence, Rate 250 g/ha, scale 0 to 10, 0 no effect, 10 complete control
[19] = Preemergence, Rate 62 g/ha, scale 0 to 10, 0 is no effect, 10 is complete control
[20] = Preemergence, Rate 125 g/ha, scale 0 to 10 (0 no effect, 10 complete control)
[21] = Preemergence, Rate 250 g/ha, scale of 0 to 10 where 0 is no effect and 10 is complete control
[22] = Preemergence, Rate 500 g/ha, scale 0 (no effect) to 10 (complete control)
[23] = Rate 125 g/ha, Postemergence, scale 0 to 10, 0 no effect, 10 complete control
[24] = Rate 500 g/ha, Postemergence, 0 to 10 scale (0 no effect, 10 complete control)
[25] = Rate 125 g/ha, Postemergence section (flood test species), scale 0 to 10, 0 no effect, 10 complete control
[26] = Rate 250 g/ha, headed Pre-emergence (flood test species), scale 0 to 10 (0 no effect, 10 complete control)
[27] = Rate 500 g/ha, Postemergence section of Table B, 0 to 10 scale (0 no effect, 10 complete control)
[28] = Rate 500 g/ha, headed Pre-emergence (flood test species), scale 0 to 10 (0 no effect, 10 complete control)
[29] = Rate 1000 g/ha, Pre-emergence (as headed), scale 0 to 10
[30] = Rate 2000 g/ha, Pre-emergence (as headed), scale 0 to 10
[31] = flood test, listed under Postemergence, Rate 250 g/ha, scale 0 to 10, 0 no effect, 10 complete control

## Cc1cccc(C)c1-n1c(=O)on(C(=O)N(c2ccccc2)C(C)C)c1=O [Compound 46]
[1]; [17]
  Nutsedge plant response rating: 0
[1]; [18]
  Nutsedge plant response rating: 0
[1]; [19]
  Plant response rating, Nutsedge: 0
[1]; [20]
  Plant response rating, Nutsedge: 0
[1]; [21]
  Plant response rating, Nutsedge: 0
[1]; [22]
  Nutsedge plant response rating: 0
[1]; [23]
  Nutsedge plant response rating: 0
[1]; [24]
  Nutsedge plant response rating: 0
[2]; [17]
  Giant foxtail plant response rating: 0
[2]; [18]
  Giant foxtail plant response rating: 1
[2]; [19]
  Plant response rating, Giant foxtail: 10
[2]; [20]
  Plant response rating, Giant foxtail: 10
[2]; [21]
  Plant response rating, Giant foxtail: 10
[2]; [22]
  Giant foxtail plant response rating: 10
[2]; [23]
  Giant foxtail plant response rating: 1
[2]; [24]
  Giant foxtail plant response rating: 6
[3]; [17]
  Velvetleaf plant response rating: 0
[3]; [18]
  Velvetleaf plant response rating: 0
[3]; [19]
  Plant response rating, Velvetleaf: 0
[3]; [20]
  Plant response rating, Velvetleaf: 0
[3]; [21]
  Plant response rating, Velvetleaf: 0
[3]; [22]
  Velvetleaf plant response rating: 2
[3]; [23]
  Velvetleaf plant response rating: 0
[4]; [17]
  Wild oats plant response rating: 0
[4]; [18]
  Wild oats plant response rating: 0
[4]; [20]
  Plant response rating, Wild oats: 0
[4]; [21]
  Plant response rating, Wild oats: 0
[4]; [22]
  Wild oats plant response rating: 0
[4]; [23]
  Wild oats plant response rating: 0
[5]; [17]
  Soybean plant response rating: 1
[5]; [18]
  Soybean plant response rating: 1
[5]; [19]
  Plant response rating, Soybean: 0
[5]; [20]
  Plant response rating, Soybean: 0
[5]; [21]
  Plant response rating, Soybean: 0
[5]; [22]
  Soybean plant response rating: 0
[5]; [23]
  Soybean plant response rating: 1
[6]; [17]
  Sugarbeets plant response rating: 0
[6]; [18]
  Sugarbeets plant response rating: 0
[6]; [19]
  Plant response rating, Sugarbeets: 0
[6]; [20]
  Plant response rating, Sugarbeets: 3
[6]; [21]
  Plant response rating, Sugarbeets: 3
[6]; [22]
  Sugarbeets plant response rating: 6
[6]; [23]
  Sugarbeets plant response rating: 0
[7]; [17]
  Corn plant response rating: 0
[7]; [18]
  Corn plant response rating: 0
[7]; [19]
  Plant response rating, Corn: 0
[7]; [20]
  Plant response rating, Corn: 0
[7]; [21]
  Plant response rating, Corn: 0
[7]; [22]
  Corn plant response rating: 0
[7]; [23]
  Corn plant response rating: 0
[7]; [24]
  Corn plant response rating: 0
[8]; [17]
  Rice plant response rating: 0
[8]; [25]
  Rice plant response rating: 0
[8]; [26]
  Rice plant response rating: 0
[8]; [27]
  Rice plant response rating: 0
[8]; [28]
  Plant response rating, Rice: 0
[8]; [29]
  Rice plant response rating: 0
[8]; [30]
  Rice plant response rating: 0
[8]; [31]
  Rice plant response rating: 0
[9]; [17]
  Ducksalad plant response rating: 0
[9]; [26]
  Ducksalad plant response rating: 0
[9]; [27]
  Ducksalad plant response rating: 0
[9]; [28]
  Plant response rating, Ducksalad: 0
[9]; [29]
  Ducksalad plant response rating: 2
[9]; [30]
  Ducksalad plant response rating: 2
[9]; [31]
  Ducksalad plant response rating: 0
[10]; [17]
  Wheat plant response rating: 0
[10]; [18]
  Wheat plant response rating: 0
[10]; [19]
  Plant response rating, Wheat: 0
[10]; [20]
  Plant response rating, Wheat: 0
[10]; [21]
  Plant response rating, Wheat: 0
[10]; [22]
  Wheat plant response rating: 0
[10]; [23]
  Wheat plant response rating: 0
[11]; [17]
  Morningglory plant response rating: 0
[11]; [18]
  Morningglory plant response rating: 1
[11]; [19]
  Plant response rating, Morningglory: 0
[11]; [20]
  Plant response rating, Morningglory: 0
[11]; [21]
  Plant response rating, Morningglory: 0
[11]; [22]
  Morningglory plant response rating: 0
[11]; [23]
  Morningglory plant response rating: 0
[11]; [24]
  Morningglory plant response rating: 2
[12]; [17]
  Redroot pigweed plant response rating: 0
[12]; [18]
  Redroot pigweed plant response rating: 0
[12]; [19]
  Plant response rating, Redroot pigweed: 0
[12]; [20]
  Plant response rating, Redroot pigweed: 0
[12]; [21]
  Plant response rating, Redroot pigweed: 6
[12]; [22]
  Redroot pigweed plant response rating: 9
[12]; [23]
  Redroot pigweed plant response rating: 0
[12]; [24]
  Redroot pigweed plant response rating: 0
[13]; [17]
  Crabgrass plant response rating: 0
[13]; [18]
  Crabgrass plant response rating: 3
[13]; [19]
  Plant response rating, Crabgrass: 1
[13]; [20]
  Plant response rating, Crabgrass: 4
[13]; [21]
  Plant response rating, Crabgrass: 10
[13]; [22]
  Crabgrass plant response rating: 10
[13]; [23]
  Crabgrass plant response rating: 0
[13]; [24]
  Crabgrass plant response rating: 3
[14]; [17]
  Barnyardgrass plant response rating: 0
[14]; [25]
  Barnyardgrass plant response rating: 0
[14]; [26]
  Barnyardgrass plant response rating: 0
[14]; [27]
  Barnyardgrass plant response rating: 0
[14]; [28]
  Plant response rating, Barnyardgrass: 0
[14]; [29]
  Barnyardgrass plant response rating: 0
[14]; Rate 2000 g/ha, Pre-emergence (as headed), scale 0 to 10, 0 no effect, 10 complete control
  Barnyardgrass plant response rating: 9
[14]; [31]
  Barnyardgrass plant response rating: 0
[15]; [17]
  Rape plant response rating: 0
[15]; [18]
  Rape plant response rating: 0
[15]; [19]
  Plant response rating, Rape: 0
[15]; [20]
  Plant response rating, Rape: 0
[15]; [21]
  Plant response rating, Rape: 0
[15]; [22]
  Rape plant response rating: 0
[15]; [23]
  Rape plant response rating: 0
[15]; [24]
  Rape plant response rating: 0
[16]; [17]
  Cocklebur plant response rating: 0
[16]; [18]
  Cocklebur plant response rating: 1
[16]; [19]
  Plant response rating, Cocklebur: 0
[16]; [20]
  Plant response rating, Cocklebur: 0
[16]; [21]
  Plant response rating, Cocklebur: 0
[16]; [22]
  Cocklebur plant response rating: 0
[16]; [23]
  Cocklebur plant response rating: 1
[16]; [24]
  Cocklebur plant response rating: 2
